The source of these data is patent publication US20090045121A1, “Dialysis Solution Preparation Water, Dialysis Solution Using Such Water, Method of Producing Dialysis Solution, and Dialysis Equipment” (priority 2006, published 2009).

This test can be described thus: Oxidation reducing capability for glyoxal by hydrogen peroxide-luminol chemiluminescence. The following applies: added to 1.0 mM, 10.0 mM and 100.0 mM glyoxal; compared to Comparative Example 1; n=3. The protocol: At the elapse of 30 seconds, 1000 μl of hydrogen peroxide was further mixed therein. Then, the chemiluminescence (CL) count (number of photons) was identified continuously for 150 seconds. Measurement was initiated when the CL counts came to 200 s per second (total time: 180 seconds). For the confirmation and measurement of the CL counts, a CL analyzer (product of TOHOKU ELECTRONIC INDUSTRIAL CO., LTD.) was employed. Using the dialysis solution preparation water of Example 1 and Comparative Example 1 obtained in Experiment 1, an evaluation experiment on the oxidation reducing capability for glyoxal was conducted. An evaluation experiment (n=3) employing hydrogen peroxide-luminol chemiluminescence similar to that of Experiment 1 was carried out, provided that the test liquid used was prepared by adding 45 μl of each dialysis solution preparation water into 45 μl of glyoxal with the concentration of 1.0 mM, 10.0 mM and 100.0 mM such that the total amount of the test liquid was 90 μl. For a reference example, a similar experiment (n=3) was carried out employing ascorbic acid (well known as a free radical scavenge substance). The test liquid was prepared such that the ascorbic acid was added to attain 1.0 μg/ml for […].

On to `O=C1O[C@H]([C@@H](O)CO)C(O)=C1O` [ascorbic acid], for which the CL total count result was “reduced significantly”.
